For 2 molecules, IC50 results are on record in publication PMC9600068, “New Approach Methods for Hazard Identification: A Case Study with Azole Fungicides Affecting Molecular Targets Associated with the Adverse Outcome Pathway for Cholestasis” (Cells, 2022).

The target of the assay is T1, bile salt export pump (BSEP) (Homo sapiens, UniProt O95342).
T1 construct: gene ABCB11
In words: inhibition of taurocholate transport in membrane preparations from HEK293 cells overexpressing human BSEP. The format is biochemical.

T1 sequence (O95342 whole entry): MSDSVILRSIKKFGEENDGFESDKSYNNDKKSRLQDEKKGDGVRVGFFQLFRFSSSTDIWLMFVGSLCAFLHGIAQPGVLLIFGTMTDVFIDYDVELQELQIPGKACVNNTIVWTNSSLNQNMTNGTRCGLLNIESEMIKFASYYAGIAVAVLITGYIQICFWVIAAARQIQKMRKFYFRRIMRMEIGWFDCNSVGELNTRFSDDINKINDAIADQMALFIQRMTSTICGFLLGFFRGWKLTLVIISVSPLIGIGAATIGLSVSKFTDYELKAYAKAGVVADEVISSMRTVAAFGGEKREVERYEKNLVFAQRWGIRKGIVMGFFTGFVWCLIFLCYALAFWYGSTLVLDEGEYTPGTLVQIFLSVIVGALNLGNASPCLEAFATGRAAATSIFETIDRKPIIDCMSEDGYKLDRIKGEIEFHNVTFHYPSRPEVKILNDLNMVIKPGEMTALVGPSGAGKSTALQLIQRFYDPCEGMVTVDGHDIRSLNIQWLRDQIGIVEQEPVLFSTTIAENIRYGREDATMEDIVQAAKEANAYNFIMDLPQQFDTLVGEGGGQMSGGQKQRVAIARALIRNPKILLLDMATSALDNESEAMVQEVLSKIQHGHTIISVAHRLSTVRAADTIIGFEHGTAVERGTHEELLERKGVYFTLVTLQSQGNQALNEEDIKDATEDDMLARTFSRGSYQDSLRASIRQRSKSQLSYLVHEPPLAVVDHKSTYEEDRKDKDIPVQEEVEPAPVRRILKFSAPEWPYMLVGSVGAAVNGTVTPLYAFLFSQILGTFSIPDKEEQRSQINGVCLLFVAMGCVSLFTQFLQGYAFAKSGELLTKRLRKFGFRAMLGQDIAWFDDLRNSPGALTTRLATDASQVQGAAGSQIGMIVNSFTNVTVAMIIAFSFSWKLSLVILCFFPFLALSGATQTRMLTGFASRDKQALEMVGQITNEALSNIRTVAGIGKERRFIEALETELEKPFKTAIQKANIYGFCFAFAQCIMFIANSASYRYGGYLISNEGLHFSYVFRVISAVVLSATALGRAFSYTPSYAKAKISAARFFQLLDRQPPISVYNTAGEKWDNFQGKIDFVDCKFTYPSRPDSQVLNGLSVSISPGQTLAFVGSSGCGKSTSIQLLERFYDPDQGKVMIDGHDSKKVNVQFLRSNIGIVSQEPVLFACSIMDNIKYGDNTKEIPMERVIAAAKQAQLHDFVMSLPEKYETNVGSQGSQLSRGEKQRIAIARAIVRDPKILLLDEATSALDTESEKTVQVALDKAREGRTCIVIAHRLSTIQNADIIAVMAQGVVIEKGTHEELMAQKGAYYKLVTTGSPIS

The term IC50 denotes the concentration that inhibits the measured activity by half. Take `CCCC1COC(Cn2cncn2)(c2ccc(Cl)cc2Cl)O1` (centres unmarked) [Pi, propiconazole]: the IC50 stood at 78.6 µM. The figure for `CC(C)(C)C(O)(CCc1ccc(Cl)cc1)Cn1cncn1` (centres unmarked) [Te, tebuconazole] is 38 µM.
